AC40 data for 110 molecules are collected here from PubChem BioAssay AID651717 (Broad Institute, 2012).

The subject of this test is mESC Bmi1-luciferase reporter, firefly/renilla ratio, 24 h. The experiment in a line: compounds raising Bmi1 reporter signal – mouse embryonic stem cells, luciferase, cherry-pick, esBAF inhibitor project, dose response (AID 651717).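 Further: luciferase knocked into Bmi1 locus with EF-1a renilla as cell number control; rising ratio signals esBAF inhibition which derepresses Bmi1.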
As to `CCc1cc(CNC(=O)c2cc(COc3ccc(C)nc3)on2)on1`, the AC40 is 6.87 µM.

For the molecule `Cc1sc2nc(-c3ccc(Br)cc3)oc(=O)c2c1C`, the AC40 was 1.61 µM.

Consider `CCn1c(COc2ccc(OC)cc2)nc2ccccc21`, for which the AC40 is 2.81 µM.

For the molecule `COc1ccc(Cl)cc1C(=O)Nc1ccc(Br)c(C)n1`, the AC40 was 6.83 µM.

`c1ccc(CCNc2nc3ccccc3s2)cc1`: the AC40 is 3.14 µM.

For the molecule `CCCn1cnc2cc(NCc3ccccc3O)ccc21`, the AC40 was 17.2 µM.

Turning to `Cc1ccc(Nc2cccccc2=O)cc1`, the AC40 is 3.88 µM.

Regarding `O=C(Nc1nccs1)C(=O)c1c[nH]c2ccccc12`, the AC40 is 0.751 µM.

`Cc1c(C(=O)NCc2cccnc2)sc2nc(-c3ccccc3)cn12`: the AC40 was 30.8 µM.

Regarding `O=C1c2ccccc2CN1c1ccccc1`, the AC40 is 3.89 µM.

With `CN(C)c1ncnc2c1ncn2-c1ccccc1`, the AC40 was 9.34 µM.

For `O=C(Nc1ccccc1Cl)NC1CCCCCCC1`, the AC40 is 5.67 µM.

In the case of `CCC(=O)Nc1cccc(-c2nnc(-c3ccccc3)o2)c1`, the AC40 is 2.83 µM.

Consider `C(=NOCc1ccccc1)c1cccnc1`, for which the AC40 was 4.28 µM.

With `COc1ccc(OCc2cc(C(=O)N3C[C@H]4CC[C@H]3C4)no2)c(Cl)c1`, the AC40 was 9.24 µM.

With `Cc1cc(NC(=O)CC2CCCC2)ccc1Br`, the AC40 was 11.8 µM.

In the case of `CO[C@H]1CN(C)C(=O)c2cc(NC(=O)Nc3ccc4c(c3)OCO4)ccc2OC[C@H](C)NC[C@H]1C`, the AC40 is 3.29 µM.

Take `Nc1cc2c(cc1Cl)-c1ccccc1C2`: the AC40 was 6.53 µM.

For `COc1ccccc1C(=O)Nc1cccc2cccnc12`, the AC40 is 13.9 µM.

For `O=C1NC(=Nc2ccccc2)S/C1=C\c1cccn1-c1ccccc1`, the AC40 is 2.43 µM.

In the case of `Cn1cccc1C(=O)OCc1ccc(C(C)(C)C)cc1`, the AC40 is 4.64 µM.

On to `O=C(Nc1ccc(F)cc1)NC1CCCCCCC1`, for which the AC40 is 12 µM.

For the molecule `NCC(=O)c1ccccc1`, the AC40 is 23 µM.

In the case of `Nc1nc(SCc2ccccc2)cc(SCc2ccccc2)n1`, the AC40 is 4.44 µM.

For `COc1cc(Cl)c(C)cc1NC(=O)c1cccc(OC)c1OC`, the AC40 is 6.31 µM.

Consider `N#Cc1ccc(C=NN2CCCCCC2)cc1`, for which the AC40 was 2.62 µM.

Take `Cn1c(=NC(=O)C2CC2)sc2cc(F)cc(F)c21`: the AC40 is 16.6 µM.

Regarding `Nc1cc2c(cc1Br)-c1ccccc1C2=NO`, the AC40 is 9.76 µM.

For the molecule `O=C(Nc1ccccc1)c1cc(C2CCCCN2S(=O)(=O)c2cccs2)on1` (stereo not given), the AC40 is 9.04 µM.

Take `COc1ccc(/C=N/Nc2nc(C)nc(N)n2)cc1`: the AC40 was 15.5 µM.

For the molecule `Cc1cccc(N=[N+]([O-])c2cccc(C)n2)n1`, the AC40 was 6.4 µM.

`COc1c(C(=O)NNC(=O)c2ccccc2)csc1Br`: the AC40 is 0.646 µM.

For `Cc1ccc(CNc2cccnc2)cc1`, the AC40 is 25.7 µM.

With `O=C(NCc1ccccn1)Nc1ccc(Br)cc1Cl`, the AC40 is 2.68 µM.

Consider `Cn1ccc2c(-c3ccc(C(=O)O)cc3)cc3c(c21)C1CCC3C1` (stereo not given), for which the AC40 was 4.09 µM.

Take `O=C(NC1CCCC1)c1cc(-c2ccc(Cl)c(Cl)c2)on1`: the AC40 is 2.8 µM.

Take `CC(=O)NCCNc1nc2cc(-c3ccc(C)cc3)sc2c(=O)n1C`: the AC40 was 14.3 µM.

Consider `Cc1ccc(C(=O)CC(=O)c2ccccc2C)c(O)c1`, for which the AC40 is 9.56 µM.

Consider `CC(NC(=O)c1cc(COc2cccc(C(F)(F)F)c2)on1)c1nccs1` (stereo not given), for which the AC40 was 6.45 µM.

For `COCOc1ccc(-c2cc(=O)c3c(O)cc(OCOC)cc3o2)cc1`, the AC40 is 8.4 µM.

`COc1ccc(-c2nnn(Cc3ccccc3)n2)cc1`: the AC40 was 0.621 µM.

As to `Cc1ccc2oc3ccccc3c(=O)c2c1`, the AC40 is 7.05 µM.

Regarding `CC(=O)N1CC2(CC(c3ccccc3F)=NO2)CN1c1ccc(Cl)cc1` (stereo not given), the AC40 was 19.9 µM.

For the molecule `COC(=O)C(Cc1ccc(OC(=O)c2ccc(Cl)cc2)cc1)N1Cc2ccccc2C1=O` (stereo not given), the AC40 is 3.13 µM.

On to `CCN1CCN(c2ccc(NC(=O)c3cccc(N4CCCC4=O)c3)cc2)CC1`, for which the AC40 is 10.3 µM.

With `CCSc1ccc(/C(N)=N/OC(=O)c2cccs2)cn1`, the AC40 was 8.66 µM.

Consider `CN(C)c1ccc(CN(C(=O)c2cc3ccccc3oc2=O)C2CCS(=O)(=O)C2)cc1` (stereo not given), for which the AC40 was 3.62 µM.

`Cc1cccc(N/N=C/c2ccc(C)s2)c1`: the AC40 is 2.91 µM.

For `COc1ccc(N=Cc2c(O)[nH]c3ccccc23)cc1OC`, the AC40 is 3.05 µM.

With `O=C(CC(=O)c1ccccc1)c1ccccc1`, the AC40 is 2.47 µM.

As to `CCCn1cnc2c(SCCc3ccccc3)nc(N)nc21`, the AC40 was 7.67 µM.

As to `CC1CCCC(C)N1C(=O)c1cc(-c2ccc(Cl)c(Cl)c2)on1` (stereo not given), the AC40 is 6.88 µM.

As for `CC(=O)c1ccc(OCc2cc(C(=O)N(C)Cc3cc(C)no3)no2)cc1`, the AC40 is 7.14 µM.

In the case of `COc1ccc(-c2ccc(OC)cc2)cc1`, the AC40 is 4.64 µM.

As to `O=C(/C=N/NC(=O)c1ccc(Cl)cc1Cl)c1ccccc1`, the AC40 was 1.41 µM.

For `CC(=O)Nc1cc2c3c(cccc3c1)-c1ccccc1-2`, the AC40 was 5.23 µM.

`CCc1sc(C(=O)Nc2ncccc2C)cc1C`: the AC40 was 20.1 µM.

Take `OC(c1ccc(F)c(F)c1)c1nc(-c2ccc3ccccc3c2)cs1` (stereo not given): the AC40 was 20.3 µM.

`CC(=O)N(C)c1nc(-c2ccc(Cl)cc2)cs1`: the AC40 was 5.63 µM.

With `c1ccc(Nc2nc3ccccc3n3nnnc23)cc1`, the AC40 is 7.2 µM.

Consider `Nc1nc(SCc2ccccc2)sc1C(=O)N1CCCCC1`, for which the AC40 is 2.53 µM.

For `CN(Cc1nccs1)C(=O)c1ccc2nc(Cc3ccccc3F)oc2c1`, the AC40 is 0.952 µM.

Consider `COc1ccc2nc(C(c3ccc(C)cc3)n3c(-c4ccccc4Br)nc4ccccc43)[nH]c2c1` (stereo not given), for which the AC40 was 0.494 µM.

`O=C(c1cccs1)N(C(=O)c1cccs1)c1ccc(Br)cn1`: the AC40 is 1.09 µM.

Take `CCCC1(C)Nc2ccccc2-c2nc3ccccc3n21` (stereo not given): the AC40 is 11.3 µM.

For the molecule `Cc1ccc2[nH]c(C(=O)N3CCCCC3)cc2c1`, the AC40 is 6.79 µM.

As for `CN(c1nc(-c2ccccc2)cs1)C1CCS(=O)(=O)C1` (stereo not given), the AC40 is 20.3 µM.

Turning to `O=C(O)C=C1CCN(c2ncc(C(F)(F)F)cc2Cl)CC1`, the AC40 is 2.07 µM.

Turning to `O=C(CCc1nnc(C2(c3ccc(Cl)cc3)CCC2)o1)N1CCCC1`, the AC40 was 3.99 µM.

For `FC(F)Oc1ccccc1/C=N/Nc1nc2ccccc2o1`, the AC40 was 3.81 µM.

For the molecule `O=C(Nc1ccccc1)c1cc(C2CCCN(C(=O)CCc3ccccc3)C2)on1` (stereo not given), the AC40 is 5.03 µM.

As to `CCC(=O)c1ccc(N2CCC(C)CC2)c(F)c1`, the AC40 is 2.04 µM.

For the molecule `CCCN1CCN(CCCNC(=O)c2ccc3nc(N4CCCCC4)sc3c2)CC1`, the AC40 is 13.3 µM.

On to `O=C(Nc1ccccn1)c1ccc(Cl)c(S(=O)(=O)N2CCCCCC2)c1`, for which the AC40 was 10.4 µM.

For `CCCCSc1nnc(-c2c[nH]c3ccccc23)n1C`, the AC40 was 6.69 µM.

On to `COc1ccccc1C(=O)NCC(=O)Nc1ccc2c(c1)CCC2`, for which the AC40 is 3.24 µM.

With `Cc1cc(Cl)c(O)c(-n2nc3ccccc3n2)c1`, the AC40 is 5.74 µM.

Consider `CCCCCn1c(=O)c(C(=O)Nc2ccccc2Cl)c(O)c2ccccc21`, for which the AC40 was 5.14 µM.

For the molecule `COc1ccc(OCc2cc(C(=O)N(Cc3nccn3C)C(C)C)no2)c2ccccc12`, the AC40 is 3.93 µM.

As for `COc1ccc(C(=O)N2CCc3ccccc32)cc1`, the AC40 was 5.97 µM.

On to `O=C1CC(/C=C/c2ccncc2)=Nc2ccccc2N1`, for which the AC40 is 6.57 µM.

`Cn1c(SCc2c(F)cccc2Cl)nnc1-c1cccs1`: the AC40 was 11.1 µM.

`COc1ccc(-c2cc([C@H]3[C@H]4C=CC[C@@H](C)[C@@H]4C(=O)N3Cc3ccccc3)ccc2F)cc1OC`: the AC40 is 17.8 µM.

`COc1cc(C(=O)Oc2ccccc2/C=N/NC(=O)c2ccc(Cl)cc2Cl)cc(OC)c1OC`: the AC40 was 1.1 µM.

Take `Cc1ccn2c(CC(C)(C)C)c(-c3ccc(F)cc3)nc2c1`: the AC40 is 1.38 µM.

For the molecule `CCN(C(=O)CN1C(=O)S/C(=C\C=C\c2ccccc2)C1=O)C1CCS(=O)(=O)C1` (stereo not given), the AC40 is 3.85 µM.

On to `Cc1ccc(NC(=O)Nc2cccc(C)n2)c(C)c1`, for which the AC40 was 6.01 µM.

As to `O=C(Nc1ccc(Nc2ccccc2)cc1)Nc1ccccc1Cl`, the AC40 was 4.5 µM.

For `CCN(CC(=O)NCc1ccc(F)cc1)C(=O)c1ccc(COc2ccccc2)cc1`, the AC40 is 25.2 µM.

For `COc1ccc(/C=N/OCc2ccccc2C#N)c(OC)c1`, the AC40 is 6.27 µM.

Consider `CCC(=O)Nc1cccc(-c2nc3ccccc3o2)c1`, for which the AC40 is 15.7 µM.

Turning to `COc1ccc(C2CC2/C(=N/OC(=O)c2cccs2)c2ccccc2)cc1` (stereo not given), the AC40 was 2.9 µM.

Consider `C(=Cc1cnnc2ccccc12)c1ccccc1`, for which the AC40 is 1.23 µM.

In the case of `Cc1noc(C)c1C(=O)Nc1nc(-c2cc(F)ccc2F)cs1`, the AC40 is 6.63 µM.

With `Cc1cccc(NC(=O)c2c(O)c3ccccc3[nH]c2=O)c1`, the AC40 is 0.371 µM.

Turning to `Cn1c(-c2ncc(F)cc2F)cc2onc(-c3c(F)cccc3Cl)c2c1=O`, the AC40 was 0.47 µM.

As for `CCCCNC(=O)CSc1nc2ccc(N3CCOCC3)cc2c(=O)n1Cc1ccc(OC)cc1`, the AC40 is 11 µM.

Turning to `Cc1ccc(NC(=O)NC2CCCCCCC2)cc1C`, the AC40 was 4.22 µM.

Regarding `Cc1ccc(C(=O)NCC(=O)Nc2ccc3c(c2)CCC3)cc1`, the AC40 was 1.44 µM.

In the case of `CC(C)CN1C(=O)c2ccc(NC(=O)c3cccs3)cc2C1=O`, the AC40 is 3.84 µM.

In the case of `CC(=O)Nc1cnc(-c2cc(C)c(O)c(C)c2)cn1`, the AC40 was 12 µM.

With `Cc1ccc(C(=O)NNC(=O)c2ccc3ccccc3c2)cc1`, the AC40 is 7.86 µM.

Consider `C=CCNc1nc(-c2ccc(O)c(C(N)=O)c2)cs1`, for which the AC40 is 6.2 µM.

For `Cc1ccccc1CNC(=O)Nc1ccc(Cl)cc1`, the AC40 was 15.1 µM.

Take `CSc1ccccc1NC(=O)c1ccc(N2CCCC2=O)cc1`: the AC40 was 2.01 µM.

Take `O=C(c1ccc(Cl)cc1)c1cnc(Nc2ccccc2)s1`: the AC40 was 1.46 µM.

On to `Fc1ccc2cc(-c3ccsc3)ncc2c1`, for which the AC40 was 3.16 µM.

As to `CC(=O)c1ccc(NC(=O)C2CC(=O)N(Cc3ccccc3)C2)cc1` (stereo not given), the AC40 was 3.25 µM.

Regarding `Cc1ccc(C)c(N2CCN(C(=O)CCc3nc(-c4cccc(C(F)(F)F)c4)no3)CC2)c1`, the AC40 was 7.5 µM.

In the case of `Cc1ccc(NCSc2ccc(Cl)cc2)cc1`, the AC40 is 1.66 µM.
